Counter-ions that a name gives are not always drawn.

Results on 25 compounds are retold here after US5300506A, “Indolylalkyl derivatives of pyrimidinylpiperazine for treating vascular headache” (Bristol-Myers Squibb Company, priority 1992, dated 1994).

T1 sequence (F1MGM3 1-403): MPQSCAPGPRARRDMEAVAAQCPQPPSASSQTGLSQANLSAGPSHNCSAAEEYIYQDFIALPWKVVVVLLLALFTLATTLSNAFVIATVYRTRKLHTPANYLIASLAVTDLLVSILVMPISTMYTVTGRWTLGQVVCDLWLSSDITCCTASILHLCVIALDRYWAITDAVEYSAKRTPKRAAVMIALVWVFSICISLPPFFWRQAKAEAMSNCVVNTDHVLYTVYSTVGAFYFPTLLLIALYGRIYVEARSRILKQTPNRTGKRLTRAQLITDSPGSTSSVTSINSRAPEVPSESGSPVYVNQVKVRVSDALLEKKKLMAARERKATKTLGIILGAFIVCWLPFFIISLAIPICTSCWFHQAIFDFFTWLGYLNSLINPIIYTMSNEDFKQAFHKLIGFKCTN

For the first series, the system named is migraine sufferers.
Test: not given
Particulars: migraine patients; cited from earlier work.
For the compound `NCCc1c[nH]c2ccc(O)cc12` [serotonin], the “effect on migraine headache (in words)” value is given as “effective in treating migraine attacks”. Take `NCCc1c[nH]c2ccc(O)cc12` [serotonin creatinine sulfate]: the “effect on migraine headache (in words)” value is reported as “induced headache can be alleviated”. Regarding `COC(=O)[C@H]1[C@H]2C[C@@H]3c4[nH]c5cc(OC)ccc5c4CCN3C[C@H]2C[C@@H](OC(=O)c2cc(OC)c(OC)c(OC)c2)[C@@H]1OC` [reserpine], the “effect on migraine headache (in words)” value is recorded as “induces a typical migraine-type headache”.

Tested on in a further series: not given
Test: not given
As to conditions: use in headache treatment; cited from earlier work.
`NCCc1c[nH]c2ccc(O)cc12` [serotonin]: the “side-effects / dependence (in words)” value was “restlessness, nausea, faintness, hyperpnea, facial flushing and parasthesias”. Take `CC[C@@H](CO)NC(=O)[C@@H]1C=C2c3cccc4c3c(cn4C)C[C@H]2N(C)C1` [methysergide]: the “side-effects / dependence (in words)” value is “severe use-limiting side-effects with long term usage”. In the case of `CN1C[C@H](C(=O)N[C@]2(C)O[C@@]3(O)[C@@H]4CCCN4C(=O)[C@H](Cc4ccccc4)N3C2=O)C=C2c3cccc4[nH]cc(c34)C[C@H]21` [ergotamine], the “side-effects / dependence (in words)” value is “cause dependence with extended use”.

The next series addresses T1, 5-HT1D (Bos taurus, UniProt F1MGM3).
T1 construct: from tissue
The series is described as follows: 5-HT1D binding site affinity (tritiated serotonin; methodology of Heuring and Peroutka with minor modifications). Particulars: in vitro. Here is the method:
Determination of 5-HT1D binding properties was accomplished employing methodology such as that described by Heuring and Peroutka, J. Neurosci., 7(3), 1987, 894-903; with only minor modifications. In vitro IC50 (nM) test values were determined for the compounds of this invention employing tritiated serotonin.
In the case of `COc1cncnc1N1CCN(CCCc2c[nH]c3ccc(N(C)S(C)(=O)=O)cc23)CC1` [Example 65], the IC50 is 4.9 nM.

Consider `COc1cncnc1N1CCN(CCCc2c[nH]c3ccccc23)CC1C` (stereo not drawn) [Example 62], for which the IC50 is 4.2 nM. For `COc1cncnc1N1CCN(C(C)CCc2c[nH]c3ccccc23)CC1` (stereo not drawn) [Example 53], the IC50 is 5 nM. On the same count and under the same terms, as for `CCS(=O)(=O)Nc1ccc2[nH]cc(CCCN3CCN(c4ncncc4OC)C(C)C3)c2c1` (stereo not drawn) [Example 70], the figure is 17.1 nM. In turn, `COc1cncnc1N1CCN(CCCc2c[nH]c3c(F)ccc(F)c23)CC1` [Example 75] gave an IC50 of 5.1 nM. As to `CCOc1cncnc1N1CCN(CCCc2c[nH]c3ccccc23)CC1` [Example 52, 4-(5-Ethoxy-4-pyrimidinyl)-1-[3-(1H-indol-3-yl)propyl]piperazine hydrochloride hydrate], the IC50 came out at 2 nM. Turning to `COc1ccc2[nH]cc(CCCN3CCN(c4ncncc4OC)CC3)c2c1` [Example 73], the IC50 worked out at 1.1 nM. Compound `CCS(=O)(=O)N(C)c1ccc2[nH]cc(CCCN3CCN(c4ncncc4OC)C(C)C3)c2c1` (stereo not drawn) [Example 69] came in with an IC50 of 19.1 nM. Turning to `CCS(=O)(=O)N(C)c1ccc2[nH]cc(CCCN3CCN(c4ncncc4OC)CC3)c2c1` [Example 68], the IC50 worked out at 12.9 nM. On the same count and under the same terms, in the case of `COc1cncnc1N1CCN(CCCc2c[nH]c3ccc(NS(C)(=O)=O)cc23)CC1` [Example 63] it was 5.2 nM. Still for that read-out and setting: as for `CCOc1ccc2[nH]cc(CCCN3CCN(c4ncncc4OC)CC3)c2c1` [Example 71], the figure is 2.2 nM. The compound `CCS(=O)(=O)Nc1ccc2[nH]cc(CCCN3CCN(c4ncncc4OC)CC3)c2c1` [Example 67] yielded an IC50 of 13.7 nM. Regarding `COc1cncnc1N1CCN(CCCc2c[nH]c3ccc(N(C)S(C)(=O)=O)cc23)CC1C` (stereo not drawn) [Example 66], the IC50 turned out to be 12 nM.

`COc1cncnc1N1CCN(CCCc2c[nH]c3cc(F)c(F)cc23)CC1` [Example 74] showed an IC50 of 29 nM. Same read-out and setting: as for `COc1cncnc1N1CCN(CCCc2c[nH]c3ccc(OCc4ccccc4)cc23)CC1` [Example 72], the figure is 14.3 nM; as for `CCC(CCc1c[nH]c2ccccc12)N1CCN(c2ncncc2OC)CC1` (stereo not drawn) [Example 54, 3-[3-[4-(5-Methoxy-4-pyrimidinyl)-1-piperazinyl]pentyl]indole], 20.5 nM.

Turning to `COc1cncnc1N1CCN(CCCc2c[nH]c3ccc(F)cc23)CC1` [Example 60], the IC50 was 3 nM. In the case of `COc1cncnc1N1CCN(CCCc2c[nH]c3ccccc23)CC1` [Example 61], the concentration for half-maximal inhibition (IC50) was determined as 2.9 nM. Still for that read-out and setting: as for `COc1cncnc1N1CCN(CCCc2c[nH]c3ccc(O)cc23)CC1` [Example 55, 1-[3-(5-Hydroxy-1H-indol-3-yl)propyl]-4-(5-methoxy-4-pyrimidinyl)piperazine], the figure is 0.8 nM; as for `COc1cncnc1N1CCN(CCCc2c[nH]c3c(F)cc(F)cc23)CC1` [Example 76], 8.1 nM.

The test system of the next series is plasma serotonin.
Test: not given
Particulars: intramuscular injection; cited from earlier work.
With `COC(=O)[C@H]1[C@H]2C[C@@H]3c4[nH]c5cc(OC)ccc5c4CCN3C[C@H]2C[C@@H](OC(=O)c2cc(OC)c(OC)c(OC)c2)[C@@H]1OC` [reserpine], the “effect on plasma serotonin (in words)” value was “lowers plasma serotonin”.

By IC50 is commonly meant the point on the concentration scale where inhibition reaches its midpoint. Low values mean higher potency, high ones lower potency.
